Measured values taken from patent US4599331A, “Etianic acids as antiangiogenics” (Syntex (U.S.A.) Inc., priority 1984, dated 1986).
Where “and” joins values, the source holds several entries; their conditions need not be identical. Equal entries are not always repeated.

Key:
glucocorticoid receptor = molecular target: T1, glucocorticoid receptor (Rattus norvegicus, UniProt P06536); experiment: competition for 3H-dexamethasone binding sites in HTC cytosol (glucocorticoid receptor affinity); settings: Table 1; displacement of 25 nM 3H-DEX, HTC (rat hepatoma) cytosol, 3 hours on ice
T1 construct: endogenous in cells; host or cells: HTC (rat hepatoma) cells, 100,000 x g cytosol
T1 sequence (P06536 1-795): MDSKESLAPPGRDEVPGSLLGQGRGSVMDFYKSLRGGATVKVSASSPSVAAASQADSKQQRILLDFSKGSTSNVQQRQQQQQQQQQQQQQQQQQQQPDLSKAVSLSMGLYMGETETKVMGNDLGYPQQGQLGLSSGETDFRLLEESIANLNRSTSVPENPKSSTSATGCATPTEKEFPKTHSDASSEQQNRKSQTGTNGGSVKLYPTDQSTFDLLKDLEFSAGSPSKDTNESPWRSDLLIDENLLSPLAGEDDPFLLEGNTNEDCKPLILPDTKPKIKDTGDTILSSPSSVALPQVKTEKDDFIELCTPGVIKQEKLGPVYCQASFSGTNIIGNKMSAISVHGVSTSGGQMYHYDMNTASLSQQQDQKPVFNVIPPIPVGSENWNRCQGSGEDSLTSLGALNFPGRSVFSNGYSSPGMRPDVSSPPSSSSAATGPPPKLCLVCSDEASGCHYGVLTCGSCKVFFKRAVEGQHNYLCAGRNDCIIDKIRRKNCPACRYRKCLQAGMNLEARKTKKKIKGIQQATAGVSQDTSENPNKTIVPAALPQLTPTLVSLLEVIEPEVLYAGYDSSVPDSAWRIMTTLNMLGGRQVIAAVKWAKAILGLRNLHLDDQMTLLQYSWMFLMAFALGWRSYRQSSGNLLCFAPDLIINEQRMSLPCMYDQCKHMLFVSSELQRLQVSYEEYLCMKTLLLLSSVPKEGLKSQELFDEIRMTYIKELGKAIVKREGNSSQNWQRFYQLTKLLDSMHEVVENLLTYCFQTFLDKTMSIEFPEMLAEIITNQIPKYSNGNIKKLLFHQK
Experimental: LE II (mouse lung capillary endothelial) or HTC (rat hepatoma) cells were grown in Dulbecco's modified Eagle's (DMEM) medium plus 10% fetal calf serum (FCS), in 150 cm^2 T-flasks. Approximately 20 flasks of LE II cells or 10 flasks of HTC cells were needed for a 60-80 sample assay.
Cell monolayers were washed 3 times with Phosphate Buffered Saline (PBS) and harvested by scraping with a rubber policeman into an ice-cold sonication buffer of 0.25M sucrose; 10 mM Tris-HCl, pH 7.4; 5 mM ethylenediaminetetraacetic acid (EDTA); 5 mM dithiothereitol; and 10 mM sodium molybdate. All subsequent steps were performed at 4° C. The cells were pooled into a final volume of 8-12 mls, broken by sonication for 45 seconds with the microtip of a Branson sonifier at setting #3 and the residue was then centrifuged at 100,000 X g for 30 minutes with a Beckman L8-50, Ti50 rotor, at 40,000 rpm. […] Incubations were peformed in a final volume of 1 ml in 1.5 ml Eppendorf centrifuge tubes for 3 hours on ice.
Fine Sephadex G-50 gel was swollen and equilibrated against column buffer of 100 mM Tris-HCl, pH 7.8; and 3 mM CaCl2. Columns were poured to a final packed volume of 4.5 ml in 5 ml plastic disposable pipets.
The packed columns were then drained of buffer and the 1 ml incubated samples were applied to each. The samples were washed into the columns with 0.5 ml of column buffer, and the exclusion volumes containing the protein peaks were eluted with another 1 ml of column buffer and collected. Aliquots of 750 μl of Biorad protein reagent were diluted 1:5 in H2 O. OD630 nm reading were compared with those obtained for a bovine serum albumin standard curve.

Epidermal Growth Factor = experiment: hamster cheek pouch (HCP) angiogenesis inhibition, EGF stimulus; format: in vivo, Male Syrian Golden hamsters; settings: Table 1; 10 μg EGF; between 0.5 and 4 mg/kg s.c. daily; each number independent result, average of six animals
Experimental: Each compound of the series was also tested for anti-angiogenic activity by an in vivo test that measured vascularization in a hamster's cheek pouch in response to either an angiogenic polypeptide growth factor, epidermal growth factor (EGF) or an induced […].
In this example, the in vivo angiogenesis inhibition activity of etianic acid esters was tested. Male Syrian Golden hamsters, weighing between 120 g and 150 g were anaesthetized by intraperitoneal (I.P.) injection of a rodent anaesthetic mixture consisting of 50 mg/kg ketamine hydrochloride, 5 mg/kg xylazine and 1 mg/kg acepromazine. The left cheek pouch of each animal was everted with a pincet and pinned down to a plexiglass-rubber stage and observed through a Zeiss stereomicroscope. 10 μg of EGF or 3×10^5 Hamster Melanoma RPM1 1846 tumor cells in 10 μl Cibachrome Blue agarose (Amicon) were injected subcutaneously in the left lower quadrant of the pouch with a Hamilton syringe.
The pouch was then reinserted and animals were kept under observation until recovered from anaesthesia.
The animals were dosed daily with one test compound, starting one day before stimulus injection and continuing until observation. The test compounds were dissolved in a minimum volume of ethanol and diluted in sterile phosphate buffer solution. […]
Either five days or twelve days after the EGF or tumor cell injection, animals were anaesthetized by I.P. injection of the rodent anaesthetic mixture. The pouch was everted on the stage and examined under the stereomicroscope. Pictures were taken with a 35 mm using Kodak Tungsten 50 professional films.
The following subjective scoring was used for evaluating the photographs:
1: minimal branching of vessels in the vicinity of injection site.
2: new vessels reach injection site, area involved is minimal (<50% of area surrounding injection site).
3: many vessels reach and cross injection site, new vessels are tortuous, (>50% of area surrounding injection site).
4: "full blown", many tortuous vessels, leakages, hemorrhages, 100% of area around injection site, invasion of new vessels into non-injected areas.
Results are expressed as the mean of the score. The results are shown in Tables 1 and 2 are percent inhibition of HCP Stimulus.

CCC(=O)O[C@]1(C(=O)OC)[C@@H](C)C[C@H]2[C@@H]3CCC4=CC(=O)C=C[C@]4(C)[C@@]3(F)[C@@H](O)C[C@@]21C [compound 1]
IC50 (glucocorticoid receptor): 5 nM | % Inhibition HCP Stimulus Epidermal Growth Factor (Epidermal Growth Factor): 70% and 77%

CCC(=O)O[C@]1(C(=O)OC)[C@@H](C)C[C@H]2[C@@H]3CC(F)C4=C(F)C(=O)C=C[C@]4(C)[C@@]3(F)[C@@H](O)C[C@@]21C (stereo partly drawn) [compound 3]
IC50 (glucocorticoid receptor): 15 nM | % Inhibition HCP Stimulus Epidermal Growth Factor (Epidermal Growth Factor): 95% and 91%

CCCC(=O)O[C@]1(C(=O)OC)[C@@H](C)C[C@H]2[C@@H]3CC(F)C4=CC(=O)C=C[C@]4(C)[C@@]3(F)[C@@H](O)C[C@@]21C (stereo partly drawn) [compound 4]
IC50 (glucocorticoid receptor): 0.25 nM | % Inhibition HCP Stimulus Epidermal Growth Factor (Epidermal Growth Factor): 100% and 78%

CCC(=O)O[C@]1(C(=O)OC)[C@H](C)C[C@H]2[C@@H]3CC(F)C4=CC(=O)C=C[C@]4(C)[C@@]3(F)[C@@H](O)C[C@@]21C (stereo partly drawn) [compound 7]
IC50 (glucocorticoid receptor): 4 nM | % Inhibition HCP Stimulus Epidermal Growth Factor (Epidermal Growth Factor): 57%

CCC(=O)O[C@]1(C(=O)OC)[C@H](C)C[C@H]2[C@@H]3CC(F)C4=C(F)C(=O)C=C[C@]4(C)[C@@]3(F)[C@@H](O)C[C@@]21C (stereo partly drawn) [compound 8]
IC50 (glucocorticoid receptor): 0.25 nM | % Inhibition HCP Stimulus Epidermal Growth Factor (Epidermal Growth Factor): 100% and 72% and 82%

CCCC(=O)O[C@]1(C(=O)OC)[C@H](C)C[C@H]2[C@@H]3CC(F)C4=CC(=O)C=C[C@]4(C)[C@@]3(F)[C@@H](O)C[C@@]21C (stereo partly drawn) [compound 9]
IC50 (glucocorticoid receptor): 0.025 nM | % Inhibition HCP Stimulus Epidermal Growth Factor (Epidermal Growth Factor): 100%
